# How the values were obtained:
# [1] = system: mRNA expressed from the genes (A) to (D) in rat liver; assay: Behavior of genes (mRNA expression level, oligo-DNA microarray) in rat liver after 28-day oral administration; format: in vivo
# Summary of the method: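 Rat liver RNA after 28 days of daily gavage dosing (male F344, 5 weeks old, four per group). A change reaching 1.5-fold, or 1/1.5, against solvent control scores as significant; opposite direction versus another carcinogen scores as not significant.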
# liver = settings: in vivo; cited from earlier work
# rodent = settings: in vivo; cited from earlier work
# [2] = gene group (A), Unigene No. Rn.144554, mRNA vs vehicle control group
# [3] = gene group (A), Unigene No. Rn.167075, mRNA vs vehicle control group
# [4] = gene group (A), Unigene No. Rn.5834, mRNA vs vehicle control group
# [5] = gene group (A), Unigene No. Rn.9836, mRNA vs vehicle control group
# [6] = gene group (B), Unigene No. Rn.1430, mRNA vs vehicle control group
# [7] = gene group (B), Unigene No. Rn.19329, mRNA vs vehicle control group
# [8] = gene group (B), Unigene No. Rn.21240, mRNA vs vehicle control group
# [9] = gene group (C), Unigene No. Rn.106184, mRNA vs vehicle control group
# [10] = gene group (C), Unigene No. Rn.108075, mRNA vs vehicle control group
# [11] = gene group (C), Unigene No. Rn.11766, mRNA vs vehicle control group
# [12] = gene group (C), Unigene No. Rn.118529, mRNA vs vehicle control group
# [13] = gene group (C), Unigene No. Rn.119024, mRNA vs vehicle control group
# [14] = gene group (C), Unigene No. Rn.120914, mRNA vs vehicle control group
# [15] = gene group (C), Unigene No. Rn.123063, mRNA vs vehicle control group
# [16] = gene group (C), Unigene No. Rn.143213, mRNA vs vehicle control group
# [17] = gene group (C), Unigene No. Rn.144946, mRNA vs vehicle control group
# [18] = gene group (C), Unigene No. Rn.14744, mRNA vs vehicle control group
# [19] = gene group (C), Unigene No. Rn.1647, mRNA vs vehicle control group
# [20] = gene group (C), Unigene No. Rn.164817, mRNA vs vehicle control group
# [21] = gene group (C), Unigene No. Rn.167685, mRNA vs vehicle control group
# [22] = gene group (C), Unigene No. Rn.185941, mRNA vs vehicle control group
# [23] = gene group (C), Unigene No. Rn.18728, mRNA vs vehicle control group
# [24] = gene group (C), Unigene No. Rn.201760, mRNA vs vehicle control group
# [25] = gene group (C), Unigene No. Rn.23969, mRNA vs vehicle control group
# [26] = gene group (C), Unigene No. Rn.24561, mRNA vs vehicle control group
# [27] = gene group (C), Unigene No. Rn.43232, mRNA vs vehicle control group
# [28] = gene group (C), Unigene No. Rn.4620, mRNA vs vehicle control group
# [29] = gene group (C), Unigene No. Rn.9757, mRNA vs vehicle control group
# [30] = gene group (C), Unigene No. Rn.9779, mRNA vs vehicle control group
# [31] = gene group (C), Unigene No. Rn.9862, mRNA vs vehicle control group
# [32] = gene group (D), Unigene No. Rn.9939, mRNA vs vehicle control group
smiles,measurement,setting,value
"O=C(O)C1C(C(=O)O)C2(Cl)C(Cl)=C(Cl)C1(Cl)C2(Cl)Cl (stereo not drawn) [TS078, Chlorendic acid]","Behavior of gene caused by administration of chemical substance, Gene No. 4846",[1]; [2],−
same,"Behavior of gene caused by administration of chemical substance, Gene No. 2026",[1]; [3],+
same,"Behavior of gene caused by administration of chemical substance, Gene No. 4218",[1]; [3],−
same,"Behavior of gene caused by administration of chemical substance, Gene No. 6182",[1]; [4],−
same,"Behavior of gene caused by administration of chemical substance, Gene No. 5600",[1]; [5],−
same,"Behavior of gene caused by administration of chemical substance, Gene No. 1494",[1]; [6],+
same,"Behavior of gene caused by administration of chemical substance, Gene No. 2045",[1]; [7],+
same,"Behavior of gene caused by administration of chemical substance, Gene No. 2203",[1]; [8],+
same,"Behavior of gene caused by administration of chemical substance, Gene No. 533",[1]; [9],−
same,"Behavior of gene caused by administration of chemical substance, Gene No. 725",[1]; [10],−
same,"Behavior of gene caused by administration of chemical substance, Gene No. 1163",[1]; [11],+
same,"Behavior of gene caused by administration of chemical substance, Gene No. 4973",[1]; [12],+
same,"Behavior of gene caused by administration of chemical substance, Gene No. 4095",[1]; [13],−
same,"Behavior of gene caused by administration of chemical substance, Gene No. 1334",[1]; [14],−
same,"Behavior of gene caused by administration of chemical substance, Gene No. 6620",[1]; [14],−
same,"Behavior of gene caused by administration of chemical substance, Gene No. 6303",[1]; [15],−
same,"Behavior of gene caused by administration of chemical substance, Gene No. 5878",[1]; [16],−
same,"Behavior of gene caused by administration of chemical substance, Gene No. 1131",[1]; [17],−
same,"Behavior of gene caused by administration of chemical substance, Gene No. 1562",[1]; [18],−
same,"Behavior of gene caused by administration of chemical substance, Gene No. 1741",[1]; [19],−
same,"Behavior of gene caused by administration of chemical substance, Gene No. 893",[1]; [20],−
same,"Behavior of gene caused by administration of chemical substance, Gene No. 6026",[1]; [21],−
same,"Behavior of gene caused by administration of chemical substance, Gene No. 154",[1]; [22],−
same,"Behavior of gene caused by administration of chemical substance, Gene No. 1993",[1]; [23],−
same,"Behavior of gene caused by administration of chemical substance, Gene No. 813",[1]; [24],−
same,"Behavior of gene caused by administration of chemical substance, Gene No. 2494",[1]; [25],−
same,"Behavior of gene caused by administration of chemical substance, Gene No. 2546",[1]; [26],−
same,"Behavior of gene caused by administration of chemical substance, Gene No. 3776",[1]; [27],−
same,"Behavior of gene caused by administration of chemical substance, Gene No. 3929",[1]; [28],−
same,"Behavior of gene caused by administration of chemical substance, Gene No. 1119",[1]; [29],−
same,"Behavior of gene caused by administration of chemical substance, Gene No. 6742",[1]; [30],−
same,"Behavior of gene caused by administration of chemical substance, Gene No. 5634",[1]; [31],+
same,"Behavior of gene caused by administration of chemical substance, Gene No. 5726",[1]; [32],−
same,Liver carcinogenicity,liver,Cr+
same,Carcinogenicity,rodent,C+
"c1ccc2cc3c(ccc4ccccc43)cc2c1 [TS046, Benz[a]anthracene]","Behavior of gene caused by administration of chemical substance, Gene No. 4846",[1]; [2],−
same,"Behavior of gene caused by administration of chemical substance, Gene No. 2026",[1]; [3],+
same,"Behavior of gene caused by administration of chemical substance, Gene No. 4218",[1]; [3],−
same,"Behavior of gene caused by administration of chemical substance, Gene No. 6182",[1]; [4],+
same,"Behavior of gene caused by administration of chemical substance, Gene No. 5600",[1]; [5],−
same,"Behavior of gene caused by administration of chemical substance, Gene No. 1494",[1]; [6],−
same,"Behavior of gene caused by administration of chemical substance, Gene No. 2045",[1]; [7],−
same,"Behavior of gene caused by administration of chemical substance, Gene No. 2203",[1]; [8],+
same,"Behavior of gene caused by administration of chemical substance, Gene No. 533",[1]; [9],−
same,"Behavior of gene caused by administration of chemical substance, Gene No. 725",[1]; [10],+
same,"Behavior of gene caused by administration of chemical substance, Gene No. 1163",[1]; [11],+
same,"Behavior of gene caused by administration of chemical substance, Gene No. 4973",[1]; [12],+
same,"Behavior of gene caused by administration of chemical substance, Gene No. 4095",[1]; [13],+
same,"Behavior of gene caused by administration of chemical substance, Gene No. 1334",[1]; [14],−
same,"Behavior of gene caused by administration of chemical substance, Gene No. 6620",[1]; [14],−
same,"Behavior of gene caused by administration of chemical substance, Gene No. 6303",[1]; [15],−
same,"Behavior of gene caused by administration of chemical substance, Gene No. 5878",[1]; [16],+
same,"Behavior of gene caused by administration of chemical substance, Gene No. 1131",[1]; [17],+
same,"Behavior of gene caused by administration of chemical substance, Gene No. 1562",[1]; [18],−
same,"Behavior of gene caused by administration of chemical substance, Gene No. 1741",[1]; [19],+
same,"Behavior of gene caused by administration of chemical substance, Gene No. 893",[1]; [20],+
same,"Behavior of gene caused by administration of chemical substance, Gene No. 6026",[1]; [21],−
same,"Behavior of gene caused by administration of chemical substance, Gene No. 154",[1]; [22],+
same,"Behavior of gene caused by administration of chemical substance, Gene No. 1993",[1]; [23],+
same,"Behavior of gene caused by administration of chemical substance, Gene No. 813",[1]; [24],+
same,"Behavior of gene caused by administration of chemical substance, Gene No. 2494",[1]; [25],−
same,"Behavior of gene caused by administration of chemical substance, Gene No. 2546",[1]; [26],+
same,"Behavior of gene caused by administration of chemical substance, Gene No. 3776",[1]; [27],+
same,"Behavior of gene caused by administration of chemical substance, Gene No. 3929",[1]; [28],−
same,"Behavior of gene caused by administration of chemical substance, Gene No. 1119",[1]; [29],+
same,"Behavior of gene caused by administration of chemical substance, Gene No. 6742",[1]; [30],+
same,"Behavior of gene caused by administration of chemical substance, Gene No. 5634",[1]; [31],+
same,"Behavior of gene caused by administration of chemical substance, Gene No. 5726",[1]; [32],+
same,Liver carcinogenicity,liver,Cr−
same,Carcinogenicity,rodent,C+
"O=C1N=C([O-])NC1(c1ccccc1)c1ccccc1.[Na+] [TS069, Phenytoin Na]","Behavior of gene caused by administration of chemical substance, Gene No. 154","[1]; rat, in vivo",+
same,"Behavior of gene caused by administration of chemical substance, Gene No. 533","[1]; rat, in vivo",−
same,"Behavior of gene caused by administration of chemical substance, Gene No. 725","[1]; rat, in vivo",+
same,"Behavior of gene caused by administration of chemical substance, Gene No. 813","[1]; rat, in vivo",−
same,"Behavior of gene caused by administration of chemical substance, Gene No. 893","[1]; rat, in vivo",−
same,"Behavior of gene caused by administration of chemical substance, Gene No. 1119","[1]; rat, in vivo",−
same,"Behavior of gene caused by administration of chemical substance, Gene No. 1131","[1]; rat, in vivo",−
same,"Behavior of gene caused by administration of chemical substance, Gene No. 1163","[1]; rat, in vivo",−
same,"Behavior of gene caused by administration of chemical substance, Gene No. 1334","[1]; rat, in vivo",−
same,"Behavior of gene caused by administration of chemical substance, Gene No. 1494","[1]; rat, in vivo",+
same,"Behavior of gene caused by administration of chemical substance, Gene No. 1562","[1]; rat, in vivo",−
same,"Behavior of gene caused by administration of chemical substance, Gene No. 1741","[1]; rat, in vivo",+
same,"Behavior of gene caused by administration of chemical substance, Gene No. 1993","[1]; rat, in vivo",−
same,"Behavior of gene caused by administration of chemical substance, Gene No. 2026","[1]; rat, in vivo",−
same,"Behavior of gene caused by administration of chemical substance, Gene No. 2045","[1]; rat, in vivo",+
same,"Behavior of gene caused by administration of chemical substance, Gene No. 2203","[1]; rat, in vivo",+
same,"Behavior of gene caused by administration of chemical substance, Gene No. 2494","[1]; rat, in vivo",−
same,"Behavior of gene caused by administration of chemical substance, Gene No. 2546","[1]; rat, in vivo",−
same,"Behavior of gene caused by administration of chemical substance, Gene No. 3776","[1]; rat, in vivo",−
same,"Behavior of gene caused by administration of chemical substance, Gene No. 3929","[1]; rat, in vivo",+
same,"Behavior of gene caused by administration of chemical substance, Gene No. 4095","[1]; rat, in vivo",+
same,"Behavior of gene caused by administration of chemical substance, Gene No. 4218","[1]; rat, in vivo",−
same,"Behavior of gene caused by administration of chemical substance, Gene No. 4846","[1]; rat, in vivo",−
same,"Behavior of gene caused by administration of chemical substance, Gene No. 4973","[1]; rat, in vivo",+
same,"Behavior of gene caused by administration of chemical substance, Gene No. 5600","[1]; rat, in vivo",−
same,"Behavior of gene caused by administration of chemical substance, Gene No. 5634","[1]; rat, in vivo",+
same,"Behavior of gene caused by administration of chemical substance, Gene No. 5726","[1]; rat, in vivo",−
same,"Behavior of gene caused by administration of chemical substance, Gene No. 5878","[1]; rat, in vivo",−
same,"Behavior of gene caused by administration of chemical substance, Gene No. 6026","[1]; rat, in vivo",−
same,"Behavior of gene caused by administration of chemical substance, Gene No. 6182","[1]; rat, in vivo",+
same,"Behavior of gene caused by administration of chemical substance, Gene No. 6303","[1]; rat, in vivo",−
same,"Behavior of gene caused by administration of chemical substance, Gene No. 6620","[1]; rat, in vivo",−
same,"Behavior of gene caused by administration of chemical substance, Gene No. 6742","[1]; rat, in vivo",−
same,Liver carcinogenicity,liver,Cr−
same,Carcinogenicity,rodent,C+
